Measurements taken from patent US20240368163A1, “COMPOUNDS AND METHODS FOR MODULATING SPLICING” (REMIX THERAPEUTICS INC., priority 2021, published 2024).

Legend:
Type in all cases: cell-based, human
HTT = experiment: HiBiT protein abundance assay, HTT; details: Homo sapiens, K562, 24 h, modified K562 cells
Method: (§1) Compounds described herein were used to screen for effects on quantitative protein abundance using a HiBit assay system (Promega). Quantitative protein abundance was determined by measuring the protein levels of HiBit-tagged protein targets expressed in cell culture via luminescence using the Nano-Glo HiBiT Lytic Detection System, which uses a split complementation assay format to reconstitute NanoBiT enzyme to generate a luminescent signal. A protein abundance assay was developed such that endogenous protein targets could be modified with the HiBiT peptide tag and their abundance could be assessed after compound treatment. Briefly, K562 cell lines containing a HiBiT-modification were treated with various compounds described herein (e.g., compounds of Formulas (I), (II), or (III)). After treatment for 24 hours, the protein abundance of a specific target was determined by measuring luminescence.
(§2) Cells were maintained in IMIDM with 10% FBS. Before the assay, cells were diluted with […] growth media (IMIDM+[…] media) and were seeded in a 384-well plate at a density of 10000 cells/well (for each cell line listed in Table 12). Each compound was prepared as a 10-point 3-fold serial dilution in DMSO with the top dose at a final concentration of 10 μM in the well. Unmodified K562 cells were added at the previously specified density with DMSO to serve as an assay baseline and positive control (PC) and DMSO only with the respective modified cell lines was added to the negative control (NC) columns. Final DMSO concentration was kept at or below 0.25%. Treated cell plates were placed in an incubator at 37° C. with 5% CO2 for 24 hours. After 24 hours, 25 μL of Complete HiBit Lytic reagent was added to each well at room temperature (e.g. one plate requiring 10 mL Lytic Buffer, 100 μL LgBiT Protein, 200 μL Lytic Substrate), shaken for 5 minutes at 600 RPM, then left to sit for 10 minutes for signal to stabilize before reading on a Spark Cyto plate reader (Tecan) with a 500 ms measurement time.
(§3) To determine compound effects on protein abundance of each target in Table 12, the percent response for each respective cell line was calculated at each compound concentration as follows:
(§4) For the normalized response at each concentration, a four-parameter logistical regression was fit to the data and the response was interpolated at the 50% value to determine a concentration for protein abundance at 50% (IC50) the untreated control.

Target C = experiment: HiBiT protein abundance assay, Target C; details: Homo sapiens, K562, 24 h, modified K562 cells
Method: • Promega Nano-Glo HiBiT Lytic Detection System (cat #N3030) • Coming 384-well TC-treated microplates (cat #3570) • Synthego Engineered Cells Knock-In Clones
as §2, §3, §4

MYB [1] = experiment: HiBiT protein abundance assay, MYB; details: Homo sapiens, K562, 24 h, modified K562 cells
Method: as §1, §2, §3, §4

MYB [2] = experiment: Splicing RT-qPCR assay, MYB mRNA canonical junction (CJ) and alternative junction (AJ); details: Homo sapiens; for AC50: increase in AJ mRNA
Method: Compounds described herein were used to modulate RNA transcript abundance in cells. The expression of a target mRNA was measured by detecting the formation of an exon-exon junction in the canonical transcript (CJ). A compound mediated exon-inclusion event was detected by observing an increase in formation of a new junction with an alternative exon (AJ). Real-time qPCR assays were used to detect these splicing switches and interrogate the potency of various compounds towards different target genes. A high-throughput real time quantitative PCR (RT-qPCR) assay was developed to measure these two isoforms of the mRNA (CJ and AJ) for exemplary genes, such as HTT, SMN2, and MYB, together with a control housekeeping gene, GAPDH or GUSB or PPIA, used for normalization. Briefly, the A673 or K562 cell line was treated with various compounds described herein (e.g., compounds of Formula (I)). After treatment, the levels of the HTT, MYB, or SMN2 mRNA targets were determined from each sample of cell lysate by cDNA synthesis followed by qPCR.
The A673 cell line was cultured in DMEM with 10% FBS. Cells were diluted with full growth media and plated in a 96-well plate (15,000 cells in 100 ul media per well). The plate was incubated at 37° C. with 5% CO2 for 24 hours to allow cells to adhere. An 11-point 3-fold serial dilution of the compounds was made in DMSO then diluted in media in an intermediate plate. Compounds were transferred from the intermediate plate to the cell plate with the top dose at a final concentration of 10 uM in the well. Final DMSO concentration was kept at or below 0.25%. The cell plate was returned to the incubator at 37° C. with 5% CO2 for an additional 24 hours.
The K562 cell line was cultured in IMDM with 10% FBS. For K562, cells were diluted with full growth media and plated in either a 96-well plate (50,000 cells in 50 uL media per well) or a 384-well plate (8,000-40,000 cells in 45 uL media per well). An 11-point 3-fold serial dilution of the compounds were made in DMSO then diluted in media in an intermediate plate. Compound was transferred from the intermediate plate to the cell plate with the top dose at a final concentration of 10 uM in the well. Final DMSO concentration was kept at or below 0.25%. Final volume was 100 uL for 96-well plate and 50 uL for 384-well plate. The cell plate was then placed in an incubator at 37° C. with 5% CO2 for 24 hours.
The cells were then gently washed with 50 uL-100 uL cold PBS before proceeding to addition of lysis buffer. 30 uL-50 μL of room temperature lysis buffer with DNAse I (and optionally RNAsin) was added to each well. Cells were shaken/mixed thoroughly at room temperature for 5-10 minutes for lysis to take place and then 3 uL-5 μL of room temperature stop solution was added and wells were shaken/mixed again. After 2-5 minutes, the cell lysate plate was transferred to ice for RT-qPCR reaction setup. The lysates could also be frozen at −80° C. for later use.
In some cases, a direct lysis buffer was used. An appropriate volume of 3× lysis buffer (10 mM Tris, 150 mM NaCl, 1.5%-2.5% Igepal and 0.1-1 U/uL RNAsin, pH 7.4) was directly added to either K562 or A673 cells in media and mixed by pipetting 3 times. The plates were then incubated at room temperature with shaking/rocking for 20-50 minutes to allow for lysis to take place. After this time, the cell lysate plate was transferred to ice to set up for the RT-qPCR reactions. The lysates could also be frozen at −80° C. for later use.
To set up 10 uL RT-qPCR reactions, cell lysates were transferred to 384-well qPCR plates containing the master mix according to the table below. The plates were sealed, gently vortexed, and spun down before the run. The volumes were adjusted accordingly in some instances where the reaction was carried in 20 μL. The table below summarizes the components of the RT-qPCR reactions:
The RT-qPCR reaction was performed using a QuantStudio (ThermoFisher) under the following fast cycling conditions. […]

[3] = 24 h, decrease in CJ mRNA, A673 or K562 cells, 24 hours treatment, RT-qPCR, read-out: MYB CJ IC50
[4] = 24 h, A673 or K562 cells, 24 hours treatment, RT-qPCR
[5] = RT-qPCR panel, canonical junction mRNA, compound concentration having 50% response in CJ decrease, read-out: MYB IC50 (decrease in CJ mRNA levels)

SMILES | IC50 (HTT; Table 13A) [µM] | IC50 (Target C; Table 13A) [µM] | IC50 (MYB [1]; Table 13A) [µM] | IC50 (MYB [2]; [3]) [µM] | AC50 (MYB [2]; [4]) [µM] | IC50 (MYB [2]; [5]) [µM] | IC50 (HTT; Table 13B) [µM] | IC50 (Target C; Table 13B) [µM] | IC50 (MYB [1]; Table 13B) [µM]
CN(c1ccc(-c2ccc(-c3cn[nH]c3)c3c2NC(=O)C3)nn1)[C@@H]1C[C@H]2CC[C@@H](C1)N2 [Compound 123] | > 10 | > 10 | > 10 | – | – | – | – | – | –
CN(c1ccc(-c2ccc(-c3cn[nH]c3)c3nc[nH]c23)nn1)[C@@H]1C[C@H]2CC[C@@H](C1)N2 [Compound 163] | > 10 | > 10 | > 10 | – | – | – | – | – | –
C[C@@H]1C[C@H](N(C)c2ccc(-c3ccc(-n4cccn4)c4cn[nH]c34)nn2)CCN1 [Compound 103] | 1 to 10 | 1 to 10 | 1 to 10 | – | – | – | – | – | –
C[C@@H]1C[C@@H](N(C)c2ccc(-c3ccc(-c4cn[nH]c4)c4cc[nH]c34)nn2)CCN1 [Compound 107] | 1 to 10 | 1 to 10 | 1 to 10 | – | – | – | – | – | –
C[C@H]1C[C@@H](N(C)c2ccc(-c3ccc(-c4cn[nH]c4)c4cc[nH]c34)nn2)CCN1 [Compound 108] | > 10 | > 10 | > 10 | > 10 | > 10 | > 10 | – | – | –
CN(c1ccc(-c2ccc(-c3cn[nH]c3)c(=O)[nH]2)nn1)[C@@H]1C[C@H]2CC[C@@H](C1)N2 [Compound 904] | – | – | – | – | – | – | > 10 | > 10 | > 10
C[C@@H]1C[C@H](N(C)c2ccc(-c3ccc(-c4cn[nH]c4)c4c3NC(=O)C4)nn2)CCN1 [Compound 121] | > 10 | > 10 | > 10 | > 10 | > 10 | > 10 | – | – | –
CN(c1ccc(-c2ccc(-n3cccn3)c(=O)[nH]2)nn1)[C@@H]1C[C@H]2CC[C@@H](C1)N2 [Compound 905] | – | – | – | – | – | – | 0.1 to 1 | 0.1 to 1 | 1 to 10
c1nc2c(-c3cn[nH]c3)ccc(-c3ccc(O[C@@H]4C[C@H]5CCC[C@@H](C4)N5)nn3)c2s1 [Compound 209] | < 0.1 | < 0.1 | 0.1 to 1 | – | – | – | – | – | –
CN(c1ccc(-c2ccc(-n3cccn3)c3cc[nH]c23)nn1)[C@@H]1C[C@H]2CC[C@@H](C1)N2 [Compound 113] | 1 to 10 | 1 to 10 | 1 to 10 | > 10 | > 10 | > 10 | – | – | –
[2H]C([2H])([2H])N(c1ccc(-c2ccc(-c3cn[nH]c3)c3cn[nH]c23)nn1)[C@@H]1C[C@H]2CC[C@@H](C1)N2 [Compound 299] | < 0.1 | < 0.1 | < 0.1 | – | – | – | – | – | –
